Laboratory results reported in US12168650B2, “Crystalline forms of 3-(5-(2-hydroxy-2-methylpropoxy)-6-methylpyrazin-2-yl)-1H-indole-7-carbonitrile” (NIDO BIOSCIENCES, INC., priority 2022, dated 2024).
In brackets after ≈: the same amount, converted by molar mass. Like-named read-outs stand apart in the source and are kept apart here.

How the values were obtained:
[1] = Bulk stability of Form C over 1 week; type: physicochemical; conditions: for Bulk (XRPD) / Color / Purity, Bulk (HPLC): Solid state
Description: Bulk stability of Form C was evaluated at 25° C./92% RH in an open container, at 40° C./75% RH in an open container and at 60° C. in a tight container over 1 week.

[2] = Solubility in solvents and mixture solvents; type: physicochemical
From the text: As there may be potential Form A/H (Anhydrate) or Form I (THF solvate) in water or THF system according to the polymorph screening report, the use of water and THF were avoided in following study. […]

[3] = 25° C./92% RH, open container, 1 week
[4] = 40° C./75% RH, open container, 1 week
[5] = 60° C., tight container, 1 week

Compound: Cc1nc(-c2c[nH]c3c(C#N)cccc23)cnc1OCC(C)(C)O [Form C, 3-(5-(2-hydroxy-2-methylpropoxy)-6-methylpyrazin-2-yl)-1H-indole-7-carbonitrile]
- Bulk stability ([1]; 25° C./92% RH open, 40° C./75% RH open, 60° C. tight container, 1 week): physically and chemically stable
- Bulk (XRPD) [1, 3]: Form C
- Color [1, 3]: No color change
- Purity, Bulk (HPLC) [1, 3]: 99.2%
- Bulk (XRPD) [1, 4]: Form C
- Color [1, 4]: No color change
- Purity, Bulk (HPLC) [1, 4]: 99.1%
- Bulk (XRPD) [1, 5]: Form C
- Color [1, 5]: No color change
- Purity, Bulk (HPLC) [1, 5]: 99.2%
- Initial purity ([1]; before stress): 99.2%
- XRPD ([2]; 2-ME-THF/n-hep mixtures, 50 ° C. (printed at 4/0.5, probably merged for all rows)): Form C
- Solubility ([2]; 2-MeTHF, 25° C.): 117 mg/mL solvent
- Solubility ([2]; 2-MeTHF, 50° C.): 154 mg/mL solvent
- Solubility ([2]; 2-MeTHF/n-heptane 1/1 (v/v), organic solvent or mixture, thermodynamic from solid, 2-ME-THF/n-hep = 1/1 (v/v), 25 ° C., read-out: Solubility): 13000 µg/mL (≈ 40.3 mM)
- Solubility ([2]; 2-MeTHF/n-heptane 1/2 (v/v), organic solvent or mixture, thermodynamic from solid, 2-ME-THF/n-hep = 1/2 (v/v), 25 ° C., read-out: Solubility): ~4000 µg/mL (≈ 12.4 mM)
- Solubility ([2]; 2-MeTHF/n-heptane 1/3 (v/v), organic solvent or mixture, thermodynamic from solid, 2-ME-THF/n-hep = 1/3 (v/v), 25 ° C., read-out: Solubility): ~2000 µg/mL (≈ 6.2 mM)
- Solubility ([2]; 2-MeTHF/n-heptane 4/0.5 (v/v), organic solvent or mixture, thermodynamic from solid, 2-ME-THF/n-hep = 4/0.5 (v/v), 50 ° C., read-out: Solubility): 122000 µg/mL (≈ 378 mM)
- Solubility ([2]; 2-MeTHF/n-heptane 4/1 (v/v), organic solvent or mixture, thermodynamic from solid, 2-ME-THF/n-hep = 4/1 (v/v), 50 ° C., read-out: Solubility): 90000 µg/mL (≈ 279 mM)
- Solubility ([2]; 2-MeTHF/n-heptane 4/2 (v/v), organic solvent or mixture, thermodynamic from solid, 2-ME-THF/n-hep = 4/2 (v/v), 50 ° C., read-out: Solubility): 49000 µg/mL (≈ 152 mM)
- Solubility ([2]; 2-MeTHF/n-heptane 4/4 (v/v), organic solvent or mixture, thermodynamic from solid, 2-ME-THF/n-hep = 4/4 (v/v), 50 ° C., read-out: Solubility): 21000 µg/mL (≈ 65.1 mM)
- Solubility ([2]; 2-MeTHF/n-heptane 4/8 (v/v), organic solvent or mixture, thermodynamic from solid, 2-ME-THF/n-hep = 4/8 (v/v), 50 ° C., read-out: Solubility): 10000 µg/mL (≈ 31 mM)
- Solubility ([2]; 2-MeTHF/n-heptane 4/12 (v/v), organic solvent or mixture, thermodynamic from solid, 2-ME-THF/n-hep = 4/12 (v/v), 50 ° C., read-out: Solubility): 5000 µg/mL (≈ 15.5 mM)
- Solubility ([2]; Acetone, 25° C.): 66 mg/mL solvent
- Solubility ([2]; Acetone, 50° C.): 122 mg/mL solvent
- Solubility ([2]; EA, 25° C.): 32 mg/mL solvent
- Solubility ([2]; EA, 50° C.): 58 mg/mL solvent
- XRPD ([2]; EA, 50° C. (cell printed at this row, probably merged downwards)): Form C
- Solubility ([2]; Ethanol, 25° C.): 27 mg/mL solvent
- Solubility ([2]; Ethanol, 50° C.): 64 mg/mL solvent
- Solubility ([2]; Heptane, 25° C.): ~2 mg/mL solvent
- Solubility ([2]; Heptane, 50° C.): ~3 mg/mL solvent
- Solubility ([2]; IPA, 25° C.): 14 mg/mL solvent
- Solubility ([2]; IPA, 50° C.): 29 mg/mL solvent
- Solubility ([2]; MCH, 25° C.): ~3 mg/mL solvent
- Solubility ([2]; MCH, 50° C.): ~3 mg/mL solvent
- Solubility ([2]; MEK, 25° C.): 63 mg/mL solvent
- Solubility ([2]; MEK, 50° C.): 110 mg/mL solvent
- Solubility ([2]; MEK/n-heptane 1/1 (v/v), organic solvent or mixture, thermodynamic from solid, MEK/n-hep = 1/1 (v/v), 25 ° C., read-out: Solubility): 16000 µg/mL (≈ 49.6 mM)
- Solubility ([2]; MEK/n-heptane 1/2 (v/v), organic solvent or mixture, thermodynamic from solid, MEK/n-hep = 1/2 (v/v), 25 ° C., read-out: Solubility): 6000 µg/mL (≈ 18.6 mM)
- Solubility ([2]; MEK/n-heptane 1/3 (v/v), organic solvent or mixture, thermodynamic from solid, MEK/n-hep = 1/3 (v/v), 25 ° C., read-out: Solubility): ~3000 µg/mL (≈ 9.31 mM)
- Solubility ([2]; MIBK, 25° C.): 21 mg/mL solvent
- Solubility ([2]; MIBK, 50° C.): 28 mg/mL solvent
- Solubility ([2]; THF, 25° C.): 247 mg/mL solvent
- Solubility ([2]; THF, 50° C.): >200 mg/mL solvent
- Solubility ([2]; Toluene, 25° C.): 5 mg/mL solvent
- Solubility ([2]; Toluene, 50° C.): 5 mg/mL solvent
- XRPD ([2]; Water, 25° C. (cell printed at this row, probably merged downwards)): Form C
- Solubility ([2]; Water, 25° C., read-out: Solubility): ~1000 µg/mL (≈ 3.1 mM)
- Solubility ([2]; Water, 50° C.): ~0 mg/mL solvent
- XRPD ([2]; Water, 50° C. (cell printed at this row, probably merged downwards)): Form C
- Solubility ([2]; acetone/n-heptane 1/1 (v/v), organic solvent or mixture, thermodynamic from solid, Acetone/n-hep = 1/1 (v/v), 25 ° C., read-out: Solubility): 18000 µg/mL (≈ 55.8 mM)
- Solubility ([2]; acetone/n-heptane 1/2 (v/v), organic solvent or mixture, thermodynamic from solid, Acetone/n-hep = 1/2 (v/v), 25 ° C., read-out: Solubility): 10000 µg/mL (≈ 31 mM)
- Solubility ([2]; acetone/n-heptane 1/3 (v/v), organic solvent or mixture, thermodynamic from solid, Acetone/n-hep = 1/3 (v/v), 25 ° C., read-out: Solubility): 5000 µg/mL (≈ 15.5 mM)
- Solubility in words ([2]; in acetone, THF, 2-MeTHF, and MEK): high solubility
- Solubility in words ([2]; in water, n-heptane, and MCH): poor solubility
- XRPD ([2]; mixture solvents, 25 ° C. (printed at Acetone/MCH = 1/1, probably merged for all rows)): Form C
- Solubility ([2]; n-PrOH, 25° C.): 21 mg/mL solvent
- Solubility ([2]; n-PrOH, 50° C.): 48 mg/mL solvent
- Solubility ([2]; organic solvent or mixture, thermodynamic from solid, 2-MeTHF/MCH = 1/1 (v/v), 25 ° C., read-out: Solubility): 18000 µg/mL (≈ 55.8 mM)
- Solubility ([2]; organic solvent or mixture, thermodynamic from solid, 2-MeTHF/MCH = 1/2 (v/v), 25 ° C., read-out: Solubility): 6000 µg/mL (≈ 18.6 mM)
- Solubility ([2]; organic solvent or mixture, thermodynamic from solid, 2-MeTHF/MCH = 1/3 (v/v), 25 ° C., read-out: Solubility): ~4000 µg/mL (≈ 12.4 mM)
- Solubility ([2]; organic solvent or mixture, thermodynamic from solid, Acetone/MCH = 1/1 (v/v), 25 ° C., read-out: Solubility): 30000 µg/mL (≈ 93.1 mM)
- Solubility ([2]; organic solvent or mixture, thermodynamic from solid, Acetone/MCH = 1/2 (v/v), 25 ° C., read-out: Solubility): 15000 µg/mL (≈ 46.5 mM)
- Solubility ([2]; organic solvent or mixture, thermodynamic from solid, MEK/MCH = 1/1 (v/v), 25 ° C., read-out: Solubility): 20000 µg/mL (≈ 62 mM)
- Solubility ([2]; organic solvent or mixture, thermodynamic from solid, MEK/MCH = 1/2 (v/v), 25 ° C., read-out: Solubility): 9000 µg/mL (≈ 27.9 mM)
